This note sets out measurements from PubChem BioAssay AID504758 (National Center for Advancing Translational Sciences (NCATS), 2011).

The data set concerns Caco-2 monolayer permeability, A-to-B, LC-MS/MS. Put plainly: Inhibitors of Cruzain: Caco-2 Permeability Profiling Assay. The settings on record: active compounds read high. An excerpt: Chagas Disease is a neglected tropical disease that affects over 16 million people in Latin America. The cysteine protease cruzain is essential for the survival Trypanosoma cruzi, the parasitic agent responsible for Chagas disease. Potential intervention for T. cruzi includes the inhibition of cruzain. This bioassay will summarize the ongoing development of small molecule cruzain inhbitiors. Currently, a screen of ~200k compounds and through extensive follow-up work a probe was identified. To further characterize the probe, it was tested in in vitro ADME assays. This permeability assay predicts the in vivo absorption of the lead across the intestinal lining by using a Caco-2 cell line and measuring the lead's rate of transport into the cytosol. […] NIH Chemical Genomics Center [NCGC] NIH Molecular Libraries Probe Production Centers Network [MLPCN] MLSCN Grant: DA024891-01 PI Name: Dr. Brian Shoichet; University of California, San Francisco
1. Buffer Preparation: Prepare 1M HEPES: add 23.83g HEPES to 100ml of 0.85% NaCl Prepare HBSS+ buffer: add 12.8ml of 1M HEPES in 0.85% NaCl to 500ml HBSS buffer. 2. Take out the compounds from -80 degrees C, ultrasonicate or pre-warm for a few minutes to thaw the compounds. 3. […] The T0, LY and T90, LY plates are read by FlexStation 3 at excitation of 485 nm and emission of 535 nm to determine LY permeability. […]

Regarding `Cc1ccc(OCCn2c(CCNC(=O)C3CCCCC3)nc3ccccc32)cc1`, the apparent permeability Papp was 4.1 10^-6 cm/s.
